Values after ≈ are worked out from the molar mass of the structure shown. Active and inactive are the calls of the source. No cut-off for these calls is given here.
Columns and labels:
HeLa = test: Cytotoxicity against human HeLa cells; assay type: functional, cell-based
KB = test: Cytotoxicity against human KB cells; assay type: functional, cell-based
[1] = target: Tyrosine-protein kinase Lck (Homo sapiens) (UniProt P06239); test: Inhibition of p56lck
[2] = (§1) Toxicity in Artemia salina at 0.5 mg/mL after 48 hrs; assay type: organism-based; details: in vivo, read-out: Activity
Mycotypha microspora [3] = test: Antifungal activity against Mycotypha microspora assessed as no colonies of test organism growing within inhibition zone at 50 ug/disk; assay type: functional; details: read-out: IZ
Lu1 = test: Cytotoxicity against human Lu1 cells; assay type: functional, cell-based
MCF7 = test: Cytotoxicity against human MCF7 cells; assay type: functional, cell-based
Caenorhabditis elegans = test: Nematicidal activity against Caenorhabditis elegans; assay type: functional, organism-based
Escherichia coli = test: Antibacterial activity against Escherichia coli at 50 ug/disk; assay type: functional
[4] = target: Human immunodeficiency virus type 1 reverse transcriptase (Human immunodeficiency virus 1) (UniProt Q72547); test: Inhibition of HIV1 reverse transcriptase
ZR-75-1 = test: Cytotoxicity against human ZR-75-1 cells; assay type: functional, cell-based
[5] = Cytotoxicity against human HMO2 cells; assay type: functional, cell-based
[Chlorella] fusca [6] = Antialgal activity against Chlorella fusca assessed as few colonies of test organism growing within inhibition zone at 50 ug/disk; assay type: functional; details: Scenedesmus fuscus; read-out: IZ
Priestia megaterium [7] = test: Antibacterial activity against Bacillus megaterium at 50 ug/disk; assay type: functional
HepG2 = test: Cytotoxicity against human HepG2 cells; assay type: functional, cell-based
Artemia salina = test: as §1; assay type: organism-based; details: in vivo, 48 h
Microbotryum violaceum [8] = test: Antifungal activity against Microbotryum violaceae at 50 ug/disk; assay type: functional
[Chlorella] fusca [9] = Antialgal activity against Chlorella fusca at 50 ug/disk; assay type: functional; details: Scenedesmus fuscus
[10] = tested on: Aspergillus pseudoglaucus; test: Antifungal activity against Eurotium repens at 50 ug/disk; assay type: functional
Fusarium oxysporum [11] = test: Antifungal activity against Fusarium oxysporum at 50 ug/disk; assay type: functional
Mycotypha microspora [12] = test: Antifungal activity against Mycotypha microspora at 50 ug/disk; assay type: functional
[13] = Toxicity in Artemia salina at 0.5 mg/mL after 24 hrs; assay type: organism-based; details: in vivo, read-out: Activity
P388 = test: Cytotoxicity against mouse P388 cells; assay type: functional, cell-based
HT-29 = test: Cytotoxicity against human HT29 cells; assay type: functional, cell-based
[14] = tested on: Aspergillus pseudoglaucus; test: Antifungal activity against Eurotium repens assessed as few colonies of test organism growing within inhibition zone at 50 ug/disk; assay type: functional; details: read-out: IZ
[15] = Cytotoxicity against rat L6 cells; assay type: cell-based; details: read-out: MIC
A549 = test: Cytotoxicity against human A549 cells; assay type: functional, cell-based
Trypanosoma cruzi = test: Antitrypanosomal activity against Trypanosoma cruzi; assay type: functional, organism-based
[16] = Cytotoxicity against human MEL28 cells; assay type: functional, cell-based; details: SK-MEL-28
Mycotypha microspora [17] = test: Antifungal activity against Mycotypha microspora assessed as few colonies of test organism growing within inhibition zone at 50 ug/disk; assay type: functional; details: read-out: IZ
Priestia megaterium [18] = test: Antibacterial activity against Bacillus megaterium assessed as no colonies of test organism growing within inhibition zone at 50 ug/disk; assay type: functional; details: read-out: IZ
Microbotryum violaceum [19] = test: Antifungal activity against Microbotryum violaceae assessed as no colonies of test organism growing within inhibition zone at 50 ug/disk; assay type: functional; details: read-out: IZ
Fusarium oxysporum [20] = test: Antifungal activity against Fusarium oxysporum assessed as few colonies of test organism growing within inhibition zone at 50 ug/disk; assay type: functional; details: read-out: IZ

Chain of Tyrosine-protein kinase Lck (Homo sapiens) (P06239 2-509 limits assumed): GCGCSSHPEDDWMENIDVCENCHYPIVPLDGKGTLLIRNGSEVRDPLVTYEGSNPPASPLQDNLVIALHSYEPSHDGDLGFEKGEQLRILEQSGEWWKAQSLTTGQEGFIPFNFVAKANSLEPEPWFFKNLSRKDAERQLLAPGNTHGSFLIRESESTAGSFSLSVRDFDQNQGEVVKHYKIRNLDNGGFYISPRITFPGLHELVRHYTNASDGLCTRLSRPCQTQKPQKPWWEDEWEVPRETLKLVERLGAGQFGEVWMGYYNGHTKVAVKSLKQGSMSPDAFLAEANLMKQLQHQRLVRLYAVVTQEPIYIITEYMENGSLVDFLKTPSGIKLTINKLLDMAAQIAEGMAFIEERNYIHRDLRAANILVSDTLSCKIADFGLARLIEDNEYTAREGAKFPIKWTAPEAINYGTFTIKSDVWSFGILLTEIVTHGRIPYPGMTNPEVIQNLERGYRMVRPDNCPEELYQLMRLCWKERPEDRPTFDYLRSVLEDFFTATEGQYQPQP

Compound: C=C1C[C@@H](O)[C@@H](Br)C(C)(C)[C@]12CC[C@@](C)(Br)[C@H](Cl)C2 [OBTUSOL]
- IC50 (HeLa): 50 µg/mL (≈ 121 µM)
- IC50 (KB): > 25 µg/mL
- Activity [1]: inactive
- mortality at 48 h, 0.5 mg/mL [2]: 80%
- zone of inhibition at 50 µg/disc (Mycotypha microspora [3]): 6 mm
- IC50 (Lu1): > 25 µg/mL
- IC50 (MCF7): 1.5 µg/mL (≈ 3.62 µM)
- Activity (Caenorhabditis elegans): Active
- Activity (Escherichia coli): inactive
- Activity [4]: inactive
- IC50 (ZR-75-1): > 25 µg/mL
- IC50 [5]: 7 µg/mL (≈ 16.9 µM)
- zone of inhibition at 50 µg/disc ([Chlorella] fusca [6]): 3 mm
- Activity (Priestia megaterium [7]): inactive
- IC50 (HepG2): < 1 µg/mL

Compound: C=C[C@@](C)(O)CC[C@H]1[C@](C)(CC[C@H](Br)C(C)(C)Cl)[C@@H]2CC[C@@]1(C)O2 [DACTYLOMELOL]
- Activity (Artemia salina): Not Active
- Activity (Microbotryum violaceum [8]): inactive
- Activity ([Chlorella] fusca [9]): inactive
- Activity (Escherichia coli): inactive
- Activity [10]: inactive
- Activity (Fusarium oxysporum [11]): inactive
- Activity (Mycotypha microspora [12]): inactive
- Activity (Priestia megaterium [7]): inactive

Compound: CC1(C)O[C@](C)([C@H]2CC[C@](C)(Cl)[C@@H](Br)C2)[C@H](O)C[C@H]1Br [CAESPITOL]
- IC50 (HeLa): 100 µg/mL (≈ 231 µM)
- IC50 (KB): > 25 µg/mL
- Activity [1]: inactive
- mortality at 48 h, 0.5 mg/mL [2]: 70%
- Activity (Microbotryum violaceum [8]): inactive
- IC50 (Lu1): > 25 µg/mL
- Activity (Caenorhabditis elegans): Active
- Activity (Escherichia coli): inactive
- Activity [10]: inactive
- Activity [4]: inactive
- IC50 (ZR-75-1): > 25 µg/mL
- Activity (Fusarium oxysporum [11]): inactive
- zone of inhibition at 50 µg/disc ([Chlorella] fusca [6]): 3 mm
- Activity (Priestia megaterium [7]): inactive

Compound: C=C1C[C@H](O)[C@H](Br)C(C)(C)[C@@]12CC[C@](C)(Br)[C@@H](Cl)C2
- IC50 (HeLa): 10 µg/mL (≈ 24.1 µM)
- inhibition zone (Toxicity) (Artemia salina): Not Active
- inhibition zone (IZ) (Microbotryum violaceum [8]): inactive
- inhibition zone (IZ) ([Chlorella] fusca [9]): inactive
- inhibition zone (IZ) (Escherichia coli): inactive
- inhibition zone (IZ) [10]: inactive
- inhibition zone (IZ) (Fusarium oxysporum [11]): inactive
- inhibition zone (IZ) (Mycotypha microspora [12]): inactive
- Activity (Priestia megaterium [7]): inactive

Compound: C=C1C[C@H](O)[C@H](Br)C(C)(C)[C@@]12CCC(C)=C(Cl)C2 [ELATOL]
- mortality at 24 h, 0.5 mg/mL [13]: 100%
- IC50 (P388): 1 µg/mL (≈ 3 µM)
- IC50 (KB): > 25 µg/mL
- Activity [1]: inactive
- IC50 (HT-29): 0.1 µg/mL (≈ 0.3 µM)
- zone of inhibition at 50 µg/disc [14]: 25 mm
- MCC [15]: 3.3 µg/mL
- IC50 (Lu1): > 25 µg/mL
- IC50 (MCF7): < 1 µg/mL
- Activity ([Chlorella] fusca [9]): inactive
- Activity (Caenorhabditis elegans): Active
- IC50 (A549): 0.1 µg/mL (≈ 0.3 µM)
- IC50 (Trypanosoma cruzi): 0.92 µg/mL (≈ 2.76 µM)
- IC50 [16]: 0.1 µg/mL (≈ 0.3 µM)
- zone of inhibition at 50 µg/disc (Mycotypha microspora [17]): 25 mm
- zone of inhibition at 50 µg/disc (Priestia megaterium [18]): 2 mm
- zone of inhibition at 50 µg/disc (Microbotryum violaceum [19]): 3 mm
- Activity [4]: inactive
- IC50 (ZR-75-1): > 25 µg/mL
- IC50 [5]: < 1 µg/mL
- IC50 (HepG2): < 1 µg/mL
- zone of inhibition at 50 µg/disc (Fusarium oxysporum [20]): 7 mm

Compound: CC1(C)C=CC(=O)[C@@](C)([C@H]2CC[C@](C)(Cl)[C@@H](Br)C2)O1 [CAESSPITENONE]
- Activity (Artemia salina): Not Active
- Activity (Microbotryum violaceum [8]): inactive
- Activity ([Chlorella] fusca [9]): inactive
- Activity (Escherichia coli): inactive
- Activity [10]: inactive
- Activity (Fusarium oxysporum [11]): inactive
- Activity (Mycotypha microspora [12]): inactive
- Activity (Priestia megaterium [7]): inactive

Compound: C=C[C@]1(C)CC[C@@H](Br)[C@](C)(CC[C@@H]2[C@@H](C)[C@]3(C)CC[C@@]2(C)O3)O1 [DACTYLOPYRANOID]
- Activity (Artemia salina): Not Active
- Activity (Microbotryum violaceum [8]): inactive
- Activity ([Chlorella] fusca [9]): inactive
- Activity (Escherichia coli): inactive
- Activity [10]: inactive
- Activity (Fusarium oxysporum [11]): inactive
- Activity (Mycotypha microspora [12]): inactive
- Activity (Priestia megaterium [7]): inactive

Compound: C=CC(C)(O)CC[C@@H]1C(=C)CC[C@@H]2C(C)(C)[C@H](Br)CC[C@@]12C (some centres not stated) [ISOPINNATOL B]
- IC50 (KB): > 25 µg/mL
- Activity (Artemia salina): Active
- Activity (Microbotryum violaceum [8]): inactive
- IC50 (Lu1): > 25 µg/mL
- Activity ([Chlorella] fusca [9]): inactive
- Activity (Escherichia coli): inactive
- Activity [10]: inactive
- IC50 (ZR-75-1): > 25 µg/mL
- Activity (Fusarium oxysporum [11]): inactive
- Activity (Priestia megaterium [7]): inactive

Compound: CC1(C)O[C@](C)([C@H]2CC[C@](C)(Cl)[C@@H](Br)C2)CC[C@H]1Br [CAESPITANE]
- IC50 (KB): > 25 µg/mL
- mortality at 48 h, 0.5 mg/mL [2]: 40%
- Activity (Microbotryum violaceum [8]): inactive
- IC50 (Lu1): > 25 µg/mL
- Activity (Escherichia coli): inactive
- Activity [10]: inactive
- IC50 (ZR-75-1): > 25 µg/mL
- Activity (Fusarium oxysporum [11]): inactive
- zone of inhibition at 50 µg/disc ([Chlorella] fusca [6]): 1 mm
- Activity (Priestia megaterium [7]): inactive

Compound: CC(=O)O[C@@H]1C[C@@H](Br)C(C)(C)O[C@]1(C)[C@H]1CC[C@](C)(Cl)[C@@H](Br)C1
- Activity (Artemia salina): Not Active
- Activity (Microbotryum violaceum [8]): inactive
- Activity ([Chlorella] fusca [9]): inactive
- Activity (Escherichia coli): inactive
- Activity [10]: inactive
- Activity (Fusarium oxysporum [11]): inactive
- Activity (Mycotypha microspora [12]): inactive
- Activity (Priestia megaterium [7]): inactive

Reference: ChEMBL document CHEMBL1142640, “New natural product isolation and comparison of the secondary metabolite content of three distinct samples of the sea hare Aplysia dactylomela from tenerife” (J Nat Prod, 2000)
